≈ marks a conversion by molar mass, not a printed value. Read-outs that look alike come from different tables or passages of the source.
What was measured:
Assay in all cases: Minimum inhibitory concentration, serial dilution method on agar plate
Format in all cases: cell-based
[1] = test system: Serratia marcescens IFO 12648
[2] = test system: Pseudomonas aeruginosa ATCC 10145; settings: for MIC: Pseudomonas aeruginosa
[3] = test system: Escherichia Coli NIHJ JC-2 (IFO 12734)
Klebsiella pneumoniae = test system: Klebsiella pneumoniae
[4] = test system: Salmonella typhi 0-901 (NCTC 8393); settings: Salmonella enterica
Pseudomonas putida 12996 = test system: Pseudomonas putida 12996
[5] = test system: Streptococcus pyogenes IID S-23; settings: for MIC: Streptococcus pyogenes
[6] = test system: Pseudomonas aeruginosa E-2; settings: for MIC: Pseudomonas aeruginosa
Shigella sonnei EW 33 = test system: Shigella sonnei EW 33
Experimental: The antimicrobial activity of the following test compounds on various test organisms listed below was determined by the serial dilution method on agar plate (Heart Infusion agar produced by Difco Co.) (see CHEMOTHERAPY 22, pp. 1126-1128 (1974)), and the minimum inhibitory concentrations (mcg/ml) obtained are shown in Tables 1, 2 and 3 below.
A sample of each test organism was prepared so that the population of the organism was 1×10^8 cells/ml (O.D. 660 mμ=0.07 to 0.16) and 1×10^6 cells/ml (which was obtained by diluting 100 fold the above 1×10^8 cells/ml preparation).

Proteus rettgeri NIH 96 = settings: Providencia rettgeri
[7] = test system: Staphylococcus aureus FDA 209 P; settings: for MIC: Staphylococcus aureus
[8] = test system: Pseudomonas aeruginosa NCTC 10490; settings: for Minimum Inhibitory Concentration: 1×10^6 cells/ml; for MIC: Pseudomonas aeruginosa, NCTC10490, 1×10^8 cells/ml
[9] = IFO12648, 1×10^6 cells/ml, read-out: Minimum Inhibitory Concentration
[10] = IFO12648, 1×10^8 cells/ml, read-out: Minimum Inhibitory Concentration
[11] = ATCC10145, 1×10^6 cells/ml, read-out: Minimum Inhibitory Concentration
[12] = ATCC10145, 1×10^8 cells/ml, read-out: Minimum Inhibitory Concentration
[13] = read-out: Minimum Inhibitory Concentration, 1×10^6 cells/ml
[14] = read-out: Minimum Inhibitory Concentration, 1×10^8 cells/ml
[15] = Pseudomonas putida, 12996, 1×10^6 cells/ml, read-out: Minimum Inhibitory Concentration
[16] = Pseudomonas putida, 12996, 1×10^8 cells/ml, read-out: Minimum Inhibitory Concentration
[17] = IIDS23, 1×10^6 cells/ml, read-out: Minimum Inhibitory Concentration
[18] = IIDS23, 1×10^8 cells/ml, read-out: Minimum Inhibitory Concentration
[19] = E2, 1×10^6 cells/ml, read-out: Minimum Inhibitory Concentration
[20] = E2, 1×10^8 cells/ml, read-out: Minimum Inhibitory Concentration
[21] = NIH96, 1×10^6 cells/ml, read-out: Minimum Inhibitory Concentration
[22] = NIH96, read-out: Minimum Inhibitory Concentration, 1×10^8 cells/ml
[23] = FDA209, 1×10^6 cells/ml, read-out: Minimum Inhibitory Concentration
[24] = FDA209, 1×10^8 cells/ml, read-out: Minimum Inhibitory Concentration
[25] = 1×10^6 cells/ml, read-out: Minimum Inhibitory Concentration
[26] = 1×10^8 cells/ml, read-out: Minimum Inhibitory Concentration
[27] = NIH96, read-out: Minimum Inhibitory Concentration, 1×10^6 cells/ml
[28] = NIH96, 1×10^8 cells/ml, read-out: Minimum Inhibitory Concentration
[29] = IFO12648, read-out: Minimum Inhibitory Concentration, 1×10^6 cells/ml
[30] = IFO12648, read-out: Minimum Inhibitory Concentration, 1×10^8 cells/ml

Compound	MIC [1, 9] [mg/L]	MIC [1, 10] [mg/L]	MIC [2, 11] [mg/L]	MIC [2, 12] [mg/L]	MIC [4, 13] [mg/L]	MIC [4, 14] [mg/L]	MIC [5, 17] [mg/L]	MIC [5, 18] [mg/L]	MIC [6, 19] [mg/L]	MIC [6, 20] [mg/L]	MIC (Shigella sonnei EW 33; EW33, 1×10^6 cells/ml) [mg/L]	MIC (Shigella sonnei EW 33; EW33, 1×10^8 cells/ml) [mg/L]	MIC (Proteus rettgeri NIH 96; [21]) [mg/L]	MIC [7, 23] [mg/L]	MIC [7, 24] [mg/L]	MIC [3, 25] [mg/L]	MIC [3, 26] [mg/L]	MIC (Klebsiella pneumoniae; [25]) [mg/L]	MIC (Klebsiella pneumoniae; [26]) [mg/L]	MIC (Proteus rettgeri NIH 96; [28]) [mg/L]	further results
CC1CCc2c(N3CCOCC3)c(F)cc3c(=O)c(C(=O)O)cn1c23 (centres unmarked) [Compound 2, 9-Fluoro-8-morpholino-5-methyl-6,7-dihydro-1-oxo-1H,5H-benzo[ij]quinolizine-2-carboxylic acid]	0.39 (≈ 1.13 µM)	0.78 (≈ 2.25 µM)	3.13 (≈ 9.04 µM)	3.13 (≈ 9.04 µM)	0.05 (≈ 0.144 µM)	0.1 (≈ 0.289 µM)	0.78 (≈ 2.25 µM)	0.78 (≈ 2.25 µM)	3.13 (≈ 9.04 µM)	6.25 (≈ 18 µM)	0.1 (≈ 0.289 µM)	0.1 (≈ 0.289 µM)	0.05 (≈ 0.144 µM)	0.025 (≈ 0.0722 µM)	0.05 (≈ 0.144 µM)	–	–	–	–	–	MIC [3, 13]: 0.1 mg/L (≈ 0.289 µM); MIC [3, 14]: 0.2 mg/L (≈ 0.577 µM); MIC (Klebsiella pneumoniae; [13]): 0.2 mg/L (≈ 0.577 µM); MIC (Klebsiella pneumoniae; [14]): 0.2 mg/L (≈ 0.577 µM); MIC (Pseudomonas putida 12996; [15]): 3.13 mg/L (≈ 9.04 µM); MIC (Pseudomonas putida 12996; [16]): 6.25 mg/L (≈ 18 µM); MIC (Proteus rettgeri NIH 96; [22]): 0.1 mg/L (≈ 0.289 µM)
CC(=O)OC1CCN(c2c(F)cc3c(=O)c(C(=O)O)cn4c3c2CCC4C)CC1 (centres unmarked) [Compound 3, 9-Fluoro-8-(4-acetyloxy-1-piperidyl)-5-methyl-6,7-dihydro-1-oxo-1H,5H-benzo[ij]quinolizine-2-carboxylic acid]	1.56 (≈ 3.88 µM)	3.13 (≈ 7.78 µM)	3.13 (≈ 7.78 µM)	6.25 (≈ 15.5 µM)	0.1 (≈ 0.248 µM)	0.1 (≈ 0.248 µM)	0.78 (≈ 1.94 µM)	0.78 (≈ 1.94 µM)	6.25 (≈ 15.5 µM)	6.25 (≈ 15.5 µM)	0.2 (≈ 0.497 µM)	0.2 (≈ 0.497 µM)	–	0.05 (≈ 0.124 µM)	0.05 (≈ 0.124 µM)	0.39 (≈ 0.969 µM)	0.39 (≈ 0.969 µM)	0.39 (≈ 0.969 µM)	0.39 (≈ 0.969 µM)	–	MIC (Pseudomonas putida 12996; [15]): 6.25 mg/L (≈ 15.5 µM); MIC (Pseudomonas putida 12996; [16]): 6.25 mg/L (≈ 15.5 µM); MIC (Proteus rettgeri NIH 96; [27]): 0.2 mg/L (≈ 0.497 µM); MIC (Proteus rettgeri NIH 96; [22]): 0.2 mg/L (≈ 0.497 µM)
CC1CCc2c(N3CCCCC3)c(F)cc3c(=O)c(C(=O)O)cn1c23 (centres unmarked) [Compound 4, 9-Fluoro-8-(1-piperidyl)-5-methyl-6,7-dihydro-1-oxo-1H,5H-benzo[ij]quinolizine-2-carboxylic acid]	6.25 (≈ 18.1 µM)	12.5 (≈ 36.3 µM)	12.5 (≈ 36.3 µM)	12.5 (≈ 36.3 µM)	0.39 (≈ 1.13 µM)	0.39 (≈ 1.13 µM)	0.78 (≈ 2.26 µM)	1.56 (≈ 4.53 µM)	12.5 (≈ 36.3 µM)	25 (≈ 72.6 µM)	0.78 (≈ 2.26 µM)	0.78 (≈ 2.26 µM)	1.56 (≈ 4.53 µM)	0.05 (≈ 0.145 µM)	0.05 (≈ 0.145 µM)	1.56 (≈ 4.53 µM)	1.56 (≈ 4.53 µM)	1.56 (≈ 4.53 µM)	1.56 (≈ 4.53 µM)	1.56 (≈ 4.53 µM)	MIC (Pseudomonas putida 12996; [15]): 25 mg/L (≈ 72.6 µM); MIC (Pseudomonas putida 12996; [16]): 25 mg/L (≈ 72.6 µM)
CC1CCc2c(N3CCC(N(C)C)CC3)c(F)cc3c(=O)c(C(=O)O)cn1c23 (centres unmarked) [Compound 5, 9-Fluoro-8-(4-dimethylamino-1-piperidyl)-5-methyl-6,7-dihydro-1-oxo-1H,5H-benzo[ij]quinolizine-2-carboxylic acid]	0.78 (≈ 2.01 µM)	1.56 (≈ 4.03 µM)	3.13 (≈ 8.08 µM)	6.25 (≈ 16.1 µM)	0.2 (≈ 0.516 µM)	0.2 (≈ 0.516 µM)	0.39 (≈ 1.01 µM)	0.78 (≈ 2.01 µM)	6.25 (≈ 16.1 µM)	6.25 (≈ 16.1 µM)	0.2 (≈ 0.516 µM)	0.2 (≈ 0.516 µM)	–	0.05 (≈ 0.129 µM)	0.05 (≈ 0.129 µM)	–	–	–	–	0.39 (≈ 1.01 µM)	MIC [3, 13]: 0.2 mg/L (≈ 0.516 µM); MIC [3, 14]: 0.2 mg/L (≈ 0.516 µM); MIC (Klebsiella pneumoniae; [13]): 0.1 mg/L (≈ 0.258 µM); MIC (Klebsiella pneumoniae; [14]): 0.2 mg/L (≈ 0.516 µM); MIC (Pseudomonas putida 12996; [15]): 6.25 mg/L (≈ 16.1 µM); MIC (Pseudomonas putida 12996; [16]): 6.25 mg/L (≈ 16.1 µM); MIC (Proteus rettgeri NIH 96; [27]): 0.2 mg/L (≈ 0.516 µM)
CC1Cc2c(N3CCCC3)c(F)cc3c(=O)c(C(=O)O)cn1c23 (centres unmarked) [Compound 6, 9-(1-Pyrrolidinyl)-8-fluoro-2-methyl-1,2-dihydro-6-oxo-pyrrolo[3,2,1-ij]quinoline-5-carboxylic acid]	0.39 (≈ 1.23 µM)	0.78 (≈ 2.47 µM)	1.56 (≈ 4.93 µM)	1.56 (≈ 4.93 µM)	0.1 (≈ 0.316 µM)	0.1 (≈ 0.316 µM)	0.78 (≈ 2.47 µM)	0.78 (≈ 2.47 µM)	1.56 (≈ 4.93 µM)	1.56 (≈ 4.93 µM)	0.024 (≈ 0.0759 µM)	0.05 (≈ 0.158 µM)	0.05 (≈ 0.158 µM)	0.024 (≈ 0.0759 µM)	0.024 (≈ 0.0759 µM)	0.2 (≈ 0.632 µM)	0.39 (≈ 1.23 µM)	0.2 (≈ 0.632 µM)	0.2 (≈ 0.632 µM)	0.1 (≈ 0.316 µM)	Minimum Inhibitory Concentration [8]: 1.56 µg/mL; MIC [8]: 1.56 mg/L (≈ 4.93 µM)
CC1Cc2c(N3CCOCC3)c(F)cc3c(=O)c(C(=O)O)cn1c23 (centres unmarked) [Compound 7, 9-Morpholino-8-fluoro-2-methyl-1,2-dihydro-6-oxo-pyrrolo[3,2,1-ij]quinoline-5-carboxylic acid]	0.2 (≈ 0.602 µM)	0.39 (≈ 1.17 µM)	1.56 (≈ 4.69 µM)	1.56 (≈ 4.69 µM)	0.024 (≈ 0.0722 µM)	0.024 (≈ 0.0722 µM)	0.78 (≈ 2.35 µM)	0.78 (≈ 2.35 µM)	1.56 (≈ 4.69 µM)	1.56 (≈ 4.69 µM)	0.024 (≈ 0.0722 µM)	0.024 (≈ 0.0722 µM)	0.05 (≈ 0.15 µM)	0.024 (≈ 0.0722 µM)	0.024 (≈ 0.0722 µM)	0.2 (≈ 0.602 µM)	0.2 (≈ 0.602 µM)	0.1 (≈ 0.301 µM)	0.2 (≈ 0.602 µM)	0.05 (≈ 0.15 µM)	Minimum Inhibitory Concentration [8]: 1.56 µg/mL; MIC [8]: 1.56 mg/L (≈ 4.69 µM)
CC1Cc2c(N3CCN(C(F)(F)F)CC3)c(F)cc3c(=O)c(C(=O)O)cn1c23.Cl (centres unmarked) [Compound 8, 9-(4-Trifluoromethyl-1-piperazinyl)-8-fluoro-2-methyl-1,2-dihydro-6-oxo-pyrrolo[3,2,1-ij]quinoline-5-carboxylic acid hydrochloride]	–	–	0.39	0.39	≤ 0.006	≤ 0.006	0.39	0.78	0.39	0.39	≤ 0.006	0.012	< 0.006	0.024	0.05	0.024	0.05	0.012	0.05	0.012	MIC [1, 29]: 0.1 mg/L; MIC [1, 30]: 0.2 mg/L; Minimum Inhibitory Concentration [8]: 0.39 µg/mL; MIC [8]: 0.39 mg/L
CCn1cc(C(=O)O)c(=O)c2ccc(C)nc21 [Compound 9, 1-Ethyl-1,4-dihydro-7-methyl-4-oxo-1,8-naphthyridine-3-carboxylic acid, reference compound]	–	–	–	–	3.13 (≈ 13.5 µM)	3.13 (≈ 13.5 µM)	–	–	–	–	3.13 (≈ 13.5 µM)	3.13 (≈ 13.5 µM)	–	–	–	–	–	–	–	–	MIC [1, 29]: 3.13 mg/L (≈ 13.5 µM); MIC [1, 30]: 3.13 mg/L (≈ 13.5 µM); Minimum Inhibitory Concentration ([2]; 1×10^6 cells/ml): > 100 µg/mL; MIC ([2]; ATCC10145, read-out: Minimum Inhibitory Concentration): > 100 mg/L; MIC [3, 13]: 3.13 mg/L (≈ 13.5 µM); MIC [3, 14]: 3.13 mg/L (≈ 13.5 µM); MIC (Klebsiella pneumoniae; [13]): 1.56 mg/L (≈ 6.72 µM); MIC (Klebsiella pneumoniae; [14]): 1.56 mg/L (≈ 6.72 µM); Minimum Inhibitory Concentration (Pseudomonas putida 12996; 1×10^6 cells/ml): > 100 µg/mL; MIC (Pseudomonas putida 12996; Pseudomonas putida, 12996, read-out: Minimum Inhibitory Concentration): > 100 mg/L; Minimum Inhibitory Concentration ([5]; 1×10^6 cells/ml): > 100 µg/mL; MIC ([5]; IIDS23, read-out: Minimum Inhibitory Concentration): > 100 mg/L; Minimum Inhibitory Concentration ([6]; 1×10^6 cells/ml): > 100 µg/mL; MIC ([6]; E2, read-out: Minimum Inhibitory Concentration): > 100 mg/L; MIC (Proteus rettgeri NIH 96; [27]): 1.56 mg/L (≈ 6.72 µM); MIC (Proteus rettgeri NIH 96; [22]): 1.56 mg/L (≈ 6.72 µM); Minimum Inhibitory Concentration ([7]; 1×10^6 cells/ml): 50 µg/mL; MIC ([7]; FDA209, read-out: Minimum Inhibitory Concentration): 50 mg/L (≈ 215 µM)
